Assay results from patent US10178867B2, “Treating microbe contamination in water with THP salts and polymeric biopenetrants” (priority 2004, dated 2019).

Legend:
[1] = tested on: General Heterotrophic Bacteria; experiment: Quantitative suspension test (planktonic bacteria) in WHO water; format: cell-based; conditions: 50 ppm ai THPS
Excerpt: Quantitative Suspension Test (Planktonic Bacteria) in WHO Water

GHB [2] = experiment: Quantitative suspension test in de inking water, GHB; format: cell-based, general heterotrophic bacteria; conditions: 75 ppm ai THPS, 3 hour contact
Excerpt: (§1) Quantitative Suspension Test in De Inking Water

SRB [3] = experiment: Quantitative suspension test in de inking water, SRB; format: cell-based, sulphate reducing bacteria; conditions: 75 ppm ai THPS, 3 hour contact
Excerpt: as §1

GHB [4] = experiment: Biofilm (sessile) test, freshwater (WHO); format: cell-based, general heterotrophic bacteria; conditions: after 75 ppm ai THPS dosed for 3 hours
Excerpt: Biofilm (Sessile) Tests: Freshwater (WHO)

GHB [5] = experiment: Biofilm test, seawater (SMOW), GHB; format: cell-based, general heterotrophic bacteria; conditions: after 75 ppm ai THPS dosed for 3 hours
Excerpt: (§2) Biofilm Tests: Seawater (SMOW)

SRB [6] = experiment: Biofilm test, seawater (SMOW), SRB; format: cell-based, sulphate reducing bacteria; conditions: after 75 ppm ai THPS dosed for 3 hours
Excerpt: as §2

In the case of “tetrakis(hydroxymethyl)phosphonium sulphate [Unformulated THPS]”, the “Log Reduction of General Heterotrophic Bacteria” value ([1]; 1 hour contact) is reported as 1, the “Log Reduction of General Heterotrophic Bacteria” value ([1]; 3 hour contact) is reported as 5.8 and the “Log reduction values, GHB” value (GHB [2]) is reported as 3.8. For the same substance, the “Log reduction values, SRB” value (SRB [3]) was 3, the “Viable bacteria, GHB” value (GHB [4]) was 1 × 10^5 and the “Viable bacteria, GHB” value (GHB [5]) was 1 × 10^2. For the same substance, the “Viable bacteria, SRB” value (SRB [6]) was 1 × 10^4.
